Measured values published in patent publication US20240083861A1, “HSD17B13 INHIBITORS AND USES THEREOF” (FL2022-001, Inc., priority 2020, published 2024).

Target: T1, Recombinant human HSD17B13 enzyme (Homo sapiens, UniProt Q7Z5P4)
T1 sequence (Q7Z5P4 20-300): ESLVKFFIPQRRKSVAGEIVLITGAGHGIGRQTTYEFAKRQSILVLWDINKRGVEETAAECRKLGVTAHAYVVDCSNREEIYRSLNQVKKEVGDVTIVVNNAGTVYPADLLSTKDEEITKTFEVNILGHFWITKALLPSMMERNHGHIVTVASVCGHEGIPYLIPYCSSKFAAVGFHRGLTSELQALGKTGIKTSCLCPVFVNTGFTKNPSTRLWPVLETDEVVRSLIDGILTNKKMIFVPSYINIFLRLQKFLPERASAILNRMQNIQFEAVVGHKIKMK
Test: HSD17b13 NAD(P)H-Glo biochemical assay
Conditions: for inhibition at 10 µM: at 10 uM compound, read-out: HSD17β13 % inhibition at 10 uM; for IC50: 50 uM estradiol, 1 mM NAD+, NAD(P)H-Glo luminescence, read-out: HSD17β13 IC50
Procedure: Example B-1: HSD17b13 NAD(P)H-Glo Biochemical Assay
Recombinant human HSD17B13 enzyme. Substrate: estradiol (Sigma β-Estradiol E8875), 100 mM in DMSO. Cofactor: NAD+ Grade I free acid (Sigma 10127965001), 20 mM in H2O. Assay buffer final concentration: 20 mM Tris pH7.4 with 0.002% Tween-20 and 0.02% BSA. Assay performed in 384 well solid bottom plate (Corning 3570). Enzymatic activity detected by NAD(P)H-Glo™ Detection System (Promega G9062).
Inhibitor compounds were serially diluted in DMSO and then further diluted in assay buffer to a 10× concentration consisting of 1% DMSO.
HSD17b13 enzyme was diluted in 1× assay buffer to the desired enzyme concentration based on the specific activity of the enzyme lot. 20 uL of diluted enzyme was added to each well along with 2.5 uL of 10× inhibitor solution. Assay plate was incubated at RT for 20 minutes, and then 2.5 uL of a 10× substrate/cofactor mix was added to each well for a final concentration of 50 uM estradiol and 1 mM NAD+. Assay plate was incubated at 37° C. for 3 hours. NAD(P)H-Glo™ Detection System reagents were prepared according to manufacturer's specifications, and 25 uL was added to each well. After incubating for 1 hour at RT, luminescence was measured.

Work on O=C(NC12CC(C1)C2)c1ccc2oc(-c3cc(C(F)(F)F)cc(O)n3)nc2c1 [Compound 1.31, N-(Bicyclo[1.1.1]pentan-1-yl)-2-(6-hydroxy-4-(trifluoromethyl)pyridin-2-yl)benzo[d]oxazole-5-carboxamide] yielded an inhibition at 10 µM of 50%.
In the case of O=C(NC1CCC1)c1ccc2oc(-c3cc(O)cc(C(F)(F)F)c3)nc2c1 [Compound 2, N-Cyclobutyl-2-(3-hydroxy-5-(trifluoromethyl)phenyl)benzo[d]oxazole-5-carboxamide], the IC50 is reported as 100 to 1000 nM.
With O=C(NC12CC(C1)C2)c1ccc2oc(-c3cc(O)cc(C(F)(F)F)c3)nc2c1 [Compound 2.01, N-(Bicyclo[1.1.1]pentan-1-yl)-2-(3-hydroxy-5-(trifluoromethyl)phenyl)benzo[d]oxa-zole-5-carboxamide] the IC50 was under 100 nM.
Molecule Cc1cc(-c2nc3cc(C(=O)NC4CCC4)ccc3o2)cc(O)c1F [Compound 2.02, N-Cyclobutyl-2-(4-fluoro-3-hydroxy-5-methylphenyl)benzo[d]oxazole-5-carboxamide] has an inhibition at 30 µM (at 30 uM compound, read-out: HSD17β13 % inhibition at 30 uM) of 20%.
Oc1cc(-c2nc3cc(-c4ccc(O)c(Cl)c4)ccc3o2)ccc1F [Compound 3, 2-Chloro-4-(2-(4-fluoro-3-hydroxyphenyl)benzo[d]oxazol-5-yl)phenol] was tested, and the IC50 was 100 to 1000 nM.
With Oc1cc(-c2nc3ccc(-c4ccc(O)c(Cl)c4)cc3o2)ccc1F [Compound 3.01, 2-Chloro-4-(2-(4-fluoro-3-hydroxyphenyl)benzo[d]oxazol-6-yl)phenol] the IC50 was 100 to 1000 nM.
For Oc1ccc(-c2ccc3oc(-c4ccc(F)c(O)c4)nc3c2)cc1 [Compound 3.02, 2-Fluoro-5-(5-(4-hydroxyphenyl)benzo[d]oxazol-2-yl)phenol], the IC50 was 100 to 1000 nM.
Work on Oc1cccc(-c2ccc3oc(-c4ccc(F)c(O)c4)nc3c2)c1 [Compound 3.03, 2-Fluoro-5-(5-(3-hydroxyphenyl)benzo[d]oxazol-2-yl)phenol] yielded an IC50 of 1000 to 30000 nM.
CS(=O)(=O)N1CCN(c2ccc3oc(-c4ccc(F)c(O)c4)nc3c2)CC1 [Compound 4, 2-Fluoro-5-(5-(4-(methylsulfonyl)piperazin-1-yl)benzo[d]oxazol-2-yl)phenol] was tested, and the IC50 was 100 to 1000 nM.
CS(=O)(=O)N1CCN(c2ccc3nc(-c4cc(O)cc(C(F)(F)F)c4)oc3c2)CC1 [Compound 4.01, 3-(6-(4-(Methylsulfonyl)piperazin-1-yl)benzo[d]oxazol-2-yl)-5-(trifluoromethyl)phenol] showed an IC50 of 100 to 1000 nM.
CS(=O)(=O)N1CCN(c2ccc3oc(-c4cc(O)cc(C(F)(F)F)c4)nc3c2)CC1 [Compound 4.02, 3-(5-(4-(Methylsulfonyl)piperazin-1-yl)benzo[d]oxazol-2-yl)-5-(trifluoromethyl)phenol] gave an IC50 of 100 to 1000 nM.
CS(=O)(=O)N1CCN(c2cc3nc(-c4cc(O)c(F)c(F)c4)oc3cc2Cl)CC1 [Compound 5, 5-(6-Chloro-5-(4-(methylsulfonyl)piperazin-1-yl)benzo[d]oxazol-2-yl)-2,3-difluorophenol] showed an IC50 of 100 to 1000 nM.
CS(=O)(=O)C1CN(c2cc3nc(-c4cc(O)c(F)c(F)c4)oc3cc2Cl)C1 [Compound 5.01, 5-(6-Chloro-5-(3-(methylsulfonyl)azetidine-1-yl)benzo[d]oxazol-2-yl)-2,3-difluorophenol] showed an IC50 of 100 to 1000 nM.
CS(=O)(=O)N1CCN(c2ccc3oc(-c4cc(O)c(F)c(F)c4)nc3c2)CC1 [Compound 5.02, 2,3-Difluoro-5-(5-(4-(methylsulfonyl)piperazin-1-yl)benzo[d]oxazol-2-yl)phenol] showed an IC50 of 100 to 1000 nM.
CS(=O)(=O)N1CCN(c2ccc3oc(-c4cc(O)c(F)c(C(F)(F)F)c4)nc3c2)CC1 [Compound 6, 2-Fluoro-5-(5-(4-(methylsulfonyl)piperazin-1-yl)benzo[d]oxazol-2-yl)-3-(trifluoromethyl)phenol] showed an IC50 of under 100 nM.
CS(=O)(=O)N1CCN(c2cc3oc(-c4cc(O)c(F)c(C(F)(F)F)c4)nc3cn2)CC1 [Compound 6.01, 2-Fluoro-5-(6-(4-(methylsulfonyl)piperazin-1-yl)oxazolo[4,5-c]pyridin-2-yl)-3-(trifluoromethyl)phenol] gave an IC50 of 100 to 1000 nM.
CS(=O)(=O)N1CCN(c2ccc3nc(-c4cc(O)c(F)c(C(F)(F)F)c4)oc3c2)CC1 [Compound 6.02, 2-Fluoro-5-(6-(4-(methylsulfonyl)piperazin-1-yl)benzo[d]oxazol-2-yl)-3-(trifluoromethyl)phenol] gave an IC50 of under 100 nM.
CS(=O)(=O)N1CCN(c2ccc3oc(-c4cc(C(F)(F)F)c(F)c(O)c4F)nc3c2)CC1 [Compound 7, 2,6-Difluoro-3-(5-(4-(methylsulfonyl)piperazin-1-yl)benzo[d]oxazol-2-yl)-5-(trifluoromethyl)phenol] gave an IC50 of 100 to 1000 nM.
CS(=O)(=O)N1CCN(c2ccc3oc(-c4cc(C(F)(F)F)cc(O)n4)nc3c2)CC1 [Compound 7.01, 6-(5-(4-(Methylsulfonyl)piperazin-1-yl)benzo[d]oxazol-2-yl)-4-(trifluoromethyl)pyridin-2-ol] was tested, and the IC50 was 1000 to 30000 nM.
CS(=O)(=O)N1CCN(c2ccc3oc(-c4cc(C(F)(F)F)c(F)c(O)n4)nc3c2)CC1 [Compound 7.02, 3-Fluoro-6-(5-(4-(methylsulfonyl)piperazin-1-yl)benzo[d]oxazol-2-yl)-4-(trifluoromethyl)pyridin-2-ol] gave an inhibition at 10 µM of 40%.
Molecule Cn1nc(-c2cc(C(F)(F)F)c(F)c(O)c2F)c2cnc(N3CCOCC34CC4)cc21 [Compound 8, 2,6-Difluoro-3-(1-methyl-6-(7-oxa-4-azaspiro[2.5]octan-4-yl)-1H-pyrazolo[4,3-c]pyridin-3-yl)-5-trifluoromethyl phenol] has an IC50 of under 100 nM.
CN(c1cc2c(cn1)c(-c1cc(C(F)(F)F)c(F)c(O)c1F)nn2C)C1CC1 [Compound 9, 3-(6-(Cyclopropyl(methyl)amino)-1-methyl-1H-pyrazolo[4,3-c]pyridin-3-yl)-2,6-difluoro-5-(trifluoromethyl)phenol] was tested, and the IC50 was under 100 nM.
Cn1nc(-c2cc(C(F)(F)F)cc(O)c2F)c2cnc(N3CCN(S(C)(=O)=O)CC3)cc21 [Compound 9.01, 2-Fluoro-3-(1-methyl-6-(4-(methylsulfonyl)piperazin-1-yl)-1H-pyrazolo[4,3-c]pyridin-3-yl)-5-(trifluoromethyl)phenol] gave an IC50 of under 100 nM.
Work on Cn1nc(-c2cc(C(F)(F)F)cc(O)c2F)c2ccc(N3CCN(S(C)(=O)=O)CC3)cc21 [Compound 9.02, 2-Fluoro-3-(1-methyl-6-(4-(methylsulfonyl)piperazin-1-yl)-1H-indazol-3-yl)-5-(trifluoromethyl)phenol] yielded an IC50 of 1000 to 30000 nM.
Molecule Cn1nc(-c2cc(C(F)(F)F)c(F)c(O)c2F)c2ccc(N3CCOCC34CC4)nc21 [Compound 9.03, 2,6-Difluoro-3-(1-methyl-6-(7-oxa-4-azaspiro[2.5]octan-4-yl)-1H-pyrazolo[3,4-b]pyridin-3-yl)-5-(trifluoromethyl)phenol] has an IC50 of under 100 nM.
With Cn1nc(-c2cc(C(F)(F)F)c(F)c(O)c2F)c2cnc(N3CC4(CCOCC4)C3)nc21 [Compound 9.04, 2,6-Difluoro-3-(1-methyl-6-(7-oxa-2-azaspiro[3.5]nonan-2-yl)-1H-pyrazolo[3,4-d]pyrimidin-3-yl)-5-(trifluoromethyl)phenol] the IC50 was under 100 nM.
Cn1nc(-c2cc(C(F)(F)F)c(F)c(O)c2F)c2cnc(N3CCC3(C)C)nc21 [Compound 9.05, 3-(6-(2,2-Dimethylazetidin-1-yl)-1-methyl-1H-pyrazolo[3,4-d]pyrimidin-3-yl)-2,6-difluoro-5-(trifluoromethyl)phenol] was tested, and the IC50 was 100 to 1000 nM.
Work on Cn1nc(-c2cc(C(F)(F)F)c(F)c(O)c2F)c2cnc(N3CC(C)(C)C3)nc21 [Compound 9.06, 3-(6-(3,3-Dimethylazetidin-1-yl)-1-methyl-1H-pyrazolo[3,4-d]pyrimidin-3-yl)-2,6-difluoro-5-(trifluoromethyl)phenol] yielded an IC50 of under 100 nM.
For CN(c1cc2c(cn1)c(-c1cc(C(F)(F)F)c(F)c(O)c1F)nn2C)C1CCC1 [Compound 9.07, 3-(6-(Cyclobutyl(methyl)amino)-1-methyl-1H-pyrazolo[4,3-c]pyridin-3-yl)-2,6-difluoro-5-(trifluoromethyl)phenol], the IC50 was under 100 nM.
Cn1nc(-c2cc(C(F)(F)F)c(F)c(O)c2F)c2cnc(N3CC(C)(C#N)C3)cc21 [Compound 9.08, 1-(3-(2,4-Difluoro-3-hydroxy-5-(trifluoromethyl)phenyl)-1-methyl-1H-pyrazolo[4,3-c]pyridin-6-yl)-3-methylazetidine-3-carbonitrile] showed an IC50 of under 100 nM.
With Cn1nc(-c2cc(C(F)(F)F)c(F)c(O)c2F)c2cnc(N3CC(C)(C#N)C3)nc21 [Compound 9.09, 1-(3-(2,4-Difluoro-3-hydroxy-5-(trifluoromethyl)phenyl)-1-methyl-1H-pyrazolo[3,4-d]pyrimidin-6-yl)-3-methylazetidine-3-carbonitrile] the IC50 was 100 to 1000 nM.
